Source: US20200239597A1, “AN ANTI-APOPTOTIC FUNCTION OF PKM2 AND INTRACELLULARLY EXPRESSED SCFV ANTIBODIES” (La Jolla Institute for Allergy and Immunology, priority 2017, published 2020)

B1: IB12: intrabody clone (scFv) that pulls down PKM2, SEQ ID NO: 1 (protein)
scFv: MAQVQLVQSGGGLVKPGGSLRLSCTASGFTFSTYWMHWFRQAPGKGLLWVSRINPDGSATIYADSVKGRFTISRDNAKNSLYLQMNSLRDEDTAVYYCARGHPLSGYPGYFDYWGQGTLVTVSSGGGGSGGGGSGVADPRLCSLSRLPSLHLLEHQQSHLHFTSGINVGAYRIYWYQQKPGSPPQFLLRYKSDSDKQQGSGVPSRFSGSRDASANAGILLISGLRSEDEADYYCAIWHSSAWVFGGGTKLTVLWGSGLASVDYKDDDDK
modifications: Artificial intrabody clone 12
B2: monovalent scFv 5 produced as recombinant protein in E. coli (scFv)
scFv: MAQVQLVETGPGLVKPSETLSLRCTVSGGSFDNYYWNWIRQPPGKGLEYIGYVFPSTGATNYNPSLGSRVTISLDTSKNQFSLTLTSVTTADTAIYYCVRSGHDLWTGSTWFDPWGQWTTVTVSSGGGGSGGGGSGGGGSEIVLTQSPGTLSLSPGERATLSCRASQSVSSSYLAWYQQKPGQAPRLLIYGASSRATGIPDRFSGSGSGTDFTLTISRLEPEDIAVYYCQQRSNWPRTFGQGTKVEIKRGLGGLASVDYKDDDDK
notes: also called purified scFv 5; recombinant scFv 5
B3: Clone 7: independent scFv isolate with DNA sequence identical to scFv 5 (protein)
scFv: B2 scFv

Assays:
293T cells = experiment: Clonogenic survival assay after BimS transfection, 293T cells; format: cell-based, human; design: protection of cells from BimS-induced death by the compound alone: dose or concentration left out as unconfirmed; conditions: DASA-58 not shown; for effect on the pro-survival effect of IB5 expression: 293T cells cultured in the presence of the compound; for protection of cells from BimS-induced death by the compound alone: without IB5
Method: Control 293T or IB5-expressing cells were incubated with or without 27 µg/ml TEPP-46 for 3 h, then transfected with BimS cDNA in a further 24-h incubation also including TEPP-46 or vehicle. The plates were fixed and stained with crystal violet after 1 week. The total area of colonies (a measure of the total mass of proliferating cells) formed in each well from were quantified using ImageJ software; mean±SEM are shown from 3 independent experiments.
Cell viability was measured with a Countess™ Automated Cell Counter (Invitrogen) using trypan blue. For the clonogenic survival assay, 293T or MEFs cells were seeded in 6-well plates at 1×10^5 cells/well in a 2-ml volume, transfected with BimS cDNA and incubated for 24 h. Afterwards, the medium was replaced and the cells cultured for 3-4 days. Thereafter, the plates were rinsed with PBS and fixed and stained with a solution containing crystal violet (0.5% w/v) and glutaraldehyde (6% v/v) as described (Franken et al., 2006).

WT PKM2 [1] = molecular target: T1, WT PKM2 (Homo sapiens, UniProt P14618); experiment: Pyruvate kinase assay (Kinase-Glo Plus), WT PKM2; format: biochemical; conditions: PKM2 at 50 nM; ADP and PEP as substrates
T1 construct: His (N); made in house; host or cells: Escherichia coli BL21(DE3)
T1 sequence (P14618 whole entry): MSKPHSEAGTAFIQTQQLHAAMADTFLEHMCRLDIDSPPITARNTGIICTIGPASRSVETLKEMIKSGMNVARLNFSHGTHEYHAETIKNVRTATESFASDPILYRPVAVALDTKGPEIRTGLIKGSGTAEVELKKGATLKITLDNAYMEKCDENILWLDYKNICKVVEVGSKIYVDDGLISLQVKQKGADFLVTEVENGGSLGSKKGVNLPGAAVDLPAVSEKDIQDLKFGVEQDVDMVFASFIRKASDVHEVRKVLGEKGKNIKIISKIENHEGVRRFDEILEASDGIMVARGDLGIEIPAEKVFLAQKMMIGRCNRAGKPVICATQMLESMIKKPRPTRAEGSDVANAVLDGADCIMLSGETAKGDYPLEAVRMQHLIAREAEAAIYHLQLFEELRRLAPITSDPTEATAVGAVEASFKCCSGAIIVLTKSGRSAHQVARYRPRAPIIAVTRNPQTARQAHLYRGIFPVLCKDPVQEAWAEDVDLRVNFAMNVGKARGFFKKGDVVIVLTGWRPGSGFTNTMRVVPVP
Method: Activity was measured by Kinase-Glo® Plus Luminescent Kinase Assay kit (promega), using ADP and PEP as substrates), with PKM2 at 50 nM. Shown are values with the basal activity of PKM2 alone subtracted out.
Pyruvate kinase activity was measured by using Kinase-Glo® Plus Luminescent Kinase Assay kit (Promega). 50-100 nM of purified WT or mutant PKM2 was added in 100 μl assay buffer containing 50 mM Tris pH7.5, 100 mM KCl, 10 mM MgCl2, 200 μM PEP, 200 μM ADP, and 3% DMSO. After a 15-min incubation, Kinase-Glo Plus™ reagent (Promega Corporation, Madison, Wis., USA) was added, according to the manufacturer's instructions. In some cases, 0-40 μM fructose 1,6-bisphosphate (FBP) and 0-150 nM scFv 5 were added.

PKM2 (K270M) = molecular target: T2, PKM2 (K270M) (Homo sapiens, UniProt P14618, K270M); experiment: Blue native gel electrophoresis, PKM2 (K270M); format: binding; conditions: not shown
T2 construct: His (N); made in house; host or cells: Escherichia coli BL21(DE3)
T2 sequence (P14618 whole entry K270M): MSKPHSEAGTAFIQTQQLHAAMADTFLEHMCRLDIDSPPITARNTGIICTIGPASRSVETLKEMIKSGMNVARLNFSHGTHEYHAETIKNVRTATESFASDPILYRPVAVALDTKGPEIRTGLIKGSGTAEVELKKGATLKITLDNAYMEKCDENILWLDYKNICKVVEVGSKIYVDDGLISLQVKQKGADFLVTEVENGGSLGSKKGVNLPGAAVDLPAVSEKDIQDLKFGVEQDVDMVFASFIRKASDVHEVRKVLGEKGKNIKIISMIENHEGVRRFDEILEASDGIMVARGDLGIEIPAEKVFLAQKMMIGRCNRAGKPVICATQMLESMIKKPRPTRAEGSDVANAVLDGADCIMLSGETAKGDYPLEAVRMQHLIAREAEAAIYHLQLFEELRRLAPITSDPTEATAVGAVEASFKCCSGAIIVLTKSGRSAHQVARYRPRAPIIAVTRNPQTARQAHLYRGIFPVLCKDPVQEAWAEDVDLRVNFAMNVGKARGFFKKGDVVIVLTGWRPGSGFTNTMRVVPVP
Description: To begin to define the aspects of PKM2 function required for the IB5-induced anti-apoptotic effect, the present inventors reconstituted PKM2-null MEFs with WT or mutant forms of PKM2. The present inventors first analyzed the K270M mutation, reported to be catalytically dead (Bollenbach et al., 1999; Dombrauckas et al., 2005; Luo et al., 2011).

WT PKM2 [2] = molecular target: T1, WT PKM2; experiment: Blue native gel electrophoresis of recombinant proteins, WT PKM2; format: binding; conditions: blue native gel
Method: Left: A monovalent form of scFv 5, produced in E. coli, induced tetramer formation in WT PKM2 along with a bandshift whose magnitude was dependent on the input amount of scFv 5. […] Reaction volume was 20 μl.
(§1) Because glucose metabolism can influence cell survival (Fulda and Debatin, 2007; Moley and Mueckler, 2000; Munoz-Pinedo et al., 2012), The present inventors asked whether IB5 could rescue cells simply through stimulating PKM2's glycolytic activity. First, to analyze the antibody's interaction with PKM2, the present inventors produced monovalent scFv 5 and PIKM2 as recombinant proteins in E. coli and analyzed mixtures of these proteins, by blue native gel electrophoresis (FIG. 3A).

Bcl-2 family proteins = experiment: Immunoblots of Bcl-2 family proteins; format: cell-based, human; conditions: alone or in combination; TEPP-46 27 μM
Method: Levels of several Bcl-2 family proteins were unchanged following IB5 expression or incubation with TEPP-46, or both. Cell lysates from 293T cells infected with and without IB5 and incubated with and without TEPP-46 (27 μM) were separated on SDS-12% polyacrylamide gels. Bcl-2 family proteins were detected by immunoblotting. The bands were quantified using ImageJ and normalized to the control cell lysate on the leftmost lane.
293T cells were washed with PBS and lysed with PBS containing 1% NP-40. Protein concentration was determined using Pierce™ BCA reagent (ThermoFisher; 23221, 23224). 35 μg protein was loaded in each lane of 12% SDS-PAGE gels. Proteins were transferred to nitrocellulose membrane and immunoblotted with the following primary antibodies: anti-Bax antibody (Santa Cruz N20), anti-Bak antibody (Cell Signaling 3814), anti-Bid antibody (R&D Systems AF860), anti-Bim antibody (Sigma B7929), anti-Puma antibody (Cell Signaling 4976), anti-Bcl-2 antibody (Abcam 32124), anti-Bcl-xL antibody (Cell Signaling 2764) and anti-Mcl-1 (Santa Cruz S19) at 1:1000 dilution. The secondary anti-rabbit and mouse antibodies, conjugated with HRP, were obtained from Santa Cruz and were used at 1:2000 dilution. The luminescence signal was detected using ECL reagent (ThermoFisher 32106).

[3] = molecular target: T3, pyruvate kinase M2 (PKM2) (Homo sapiens, UniProt P14618); experiment: Target protein immunoprecipitation (FLAG pull-down, mass spectrometry, immunoblot); format: binding; conditions: Triton X-100 extracts of 293T cells, anti-FLAG beads
T3 construct: some intrabodies precipitated specific cellular proteins; endogenous in cells; host or cells: HEK293T (293T)
T3 sequence (P14618 whole entry): as the sequence (P14618 whole entry) above
Method: FIG. 1 C is a photograph of a non-limiting SDS-PAGE gel with silver stain from an immunoprecipitation assay using antibodies encoded by DNA sequences isolated from FIG. 1B. […] Intrabodies that rescued cells from BimS-induced death were chosen for pull-down analysis as described in Methods. Left panel: Triton™-X-100 (1%) cell extracts were incubated with anti-FLAG beads, then proteins eluted with 3×FLAG peptide and separated by SDS-PAGE with silver stain. Specific bands are marked with dots; some bands (e.g. at 37 and 70 kD) are nonspecific. […] The bands near 25 kD are the scFv polypeptides, whose expression levels varied.
Flag-tagged intrabody was introduced along with a tandem Strep-tag by PCR into the same lentiviral vector used for selection. 293T cells infected with the intrabody lentivirus were incubated at 30° C. for 72 h as described above. After washing with cold PBS, 5×10^8 cells were lysed for 15 minutes on ice in lysis buffer (50 mM Tris HCl, pH 7.4, 150 mM NaCl, 1 mM EDTA, 1% Triton™ X-100). Cell lysates were clarified by centrifugation for 15 minutes at 4° C. at 16,000×g. The total protein content of the soluble fraction was quantified using the BCA assay. For pull-down experiments, 10 mg of protein lysate was incubated with 200 al of EZview™ Red anti-FLAG® M2 Affini-ty Gel (Sigma-Aldrich) for 2 h at 4° C. Beads were washed 3 times in wash buffer (50 mM Tris HCl, pH 7.4, 150 mM NaCl, 1 mM EDTA, 0.1% Triton X-100). Elution was performed under native conditions by competition with 3×FLAG peptide following the manufacturer's protocol. Eluates were used for the second step purification using Strep-Tactin Superflow Plus™ [Qiagen], following the manufacturer's instructions. The final two-step purified protein was used for SDS-PAGE analysis. Bands of interest were cut out from the gel and subjected to in-gel digestion with trypsin (Promega, Fitchburg, Wis., USA) followed by MALDI TOF/TOF mass spectrometry analysis (Biomolecular and Proteomics Mass Spectrometry Facility, University of California at San Diego).

recombinant PKM1 = molecular target: T4, recombinant PKM1 (UniProt P14618-2 1-531); experiment: in vitro experiments with recombinant proteins (blue native gel bandshift; scFv 5 failed to shift PKM1)
T4 construct: Ran as a constitutive tetramer; also called PIKM1; M1 isoform of pyruvate kinase
T4 sequence (P14618 other isoform, or with tags, fused parts or gaps): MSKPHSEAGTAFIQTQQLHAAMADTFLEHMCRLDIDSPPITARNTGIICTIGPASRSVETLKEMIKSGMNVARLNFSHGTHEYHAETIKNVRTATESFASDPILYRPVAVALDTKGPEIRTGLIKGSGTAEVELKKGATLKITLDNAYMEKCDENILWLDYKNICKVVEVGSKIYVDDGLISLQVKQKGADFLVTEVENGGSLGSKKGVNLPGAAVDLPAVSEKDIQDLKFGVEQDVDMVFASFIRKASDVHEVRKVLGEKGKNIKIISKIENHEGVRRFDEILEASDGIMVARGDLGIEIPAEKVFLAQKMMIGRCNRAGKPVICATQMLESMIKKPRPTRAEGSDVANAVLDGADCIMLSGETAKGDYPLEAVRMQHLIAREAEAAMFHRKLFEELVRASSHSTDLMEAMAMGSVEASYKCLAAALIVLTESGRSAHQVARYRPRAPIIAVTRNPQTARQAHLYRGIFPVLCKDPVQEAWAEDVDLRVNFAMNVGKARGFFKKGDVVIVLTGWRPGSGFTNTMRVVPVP
Description: as §1, with “3A). […] Thus, the intrabody bound directly to PKM2, promoting its stable tetramerization, and moreover, higher input ratios of scFv:PKIM2 produced increased binding stoichiometry.” for “3A).”

Molecule	effect on the pro-survival effect of IB5 expression (293T cells)	protection of cells from BimS-induced death by the compound alone (293T cells)	protein pulled down from cell extracts [3]	also measured
Nc1cccc(S(=O)(=O)N2CCCN(S(=O)(=O)c3ccc4c(c3)OCCO4)CC2)c1 [DASA-58]	enhanced the pro-survival effect of IB5 expression to a modest but statistically significant extent	did not protect cells	–	–
O=C(COP(=O)(O)O)[C@@H](O)[C@H](O)[C@H](O)COP(=O)(O)O [FBP, fructose 1,6-bisphosphate, reference compound]	–	–	–	glycolytic (pyruvate kinase) activity of WT PKM2 (WT PKM2 [1]): Stimulation of PKM2 activity; stable tetramer formation of PKM2 (K270M) (PKM2 (K270M)): prevented the protein from forming stable tetramers; tetramer formation of WT PKM2 (WT PKM2 [2]): produced the tetramer form
Cn1c2cc([S+](C)[O-])sc2c2cnn(Cc3cccc(N)c3)c(=O)c21 (centres unmarked) [TEPP-46]	enhanced the pro-survival effect of IB5 expression to a modest but statistically significant extent	did not protect cells	–	levels of Bax, Bak, Bid, Bim, Puma, Bcl-2, Bcl-xL and Mcl-1 (Bcl-2 family proteins): failed to change the mitochondrial levels
B1	–	–	pulled down a 55-kD protein now identified as pyruvate kinase M2	–
B2	–	–	–	binding result (recombinant PKM1): no binding
B3	–	–	pulled down a 55-kD protein now identified as pyruvate kinase M2	–
